What was measured:
Assay in all cases: Bliss excess, mean over the matrix (fraction); higher = more synergy
[1] = system: 22RV1 (Prostate Carcinoma)
Summary of the method: (§1)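 Cell lines in DMEM/F12 or RPMI with 10% FBS were plated in 1536-well plates, held 24 hours at 37°C, 5% CO2, then given two-drug dose matrices for 72 hours (DMSO typically 0.2%). Viability was read by CellTiter-Glo 2.0 luminescence and scaled as inhibition from 0 (vehicle wells) to 1 (blank wells). Combination Emax is the second-highest inhibition in the matrix; Bliss excess is observed combination effect minus expected EA + EB − EA·EB, EA and EB being single-agent effects.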

[2] = system: 769-P (Kidney Carcinoma)
Summary of the method: as §1

[3] = system: CESS (Acute Myeloid Leukemia)
Summary of the method: as §1

[4] = system: DMS-53 (Small Cell Lung Carcinoma)
Summary of the method: as §1

[5] = system: EB2 (Burkitt's Lymphoma)
Summary of the method: as §1

[6] = system: EPLC-272H (Other Solid Carcinomas)
Summary of the method: as §1

[7] = system: EW-16 (Ewing's Sarcoma)
Summary of the method: as §1

[8] = system: GCT (Other Solid Carcinomas)
Summary of the method: as §1

[9] = system: HT55 (Colorectal Carcinoma)
Summary of the method: as §1

[10] = system: JIMT-1 (Breast Carcinoma)
Summary of the method: as §1

[11] = system: MDA-MB-436 (Breast Carcinoma)
Summary of the method: as §1

[12] = system: NB13 (Neuroblastoma)
Summary of the method: as §1

[13] = system: NCI-H1703 (Squamous Cell Lung Carcinoma)
Summary of the method: as §1

[14] = system: NCI-H2228 (Lung Adenocarcinoma)
Summary of the method: as §1

[15] = system: NCI-H441 (Lung Adenocarcinoma)
Summary of the method: as §1

[16] = system: NCI-H716 (Colorectal Carcinoma)
Summary of the method: as §1

[17] = system: OACp4C (Esophageal Adenocarcinoma)
Summary of the method: as §1

[18] = system: PEO1 (Ovarian Carcinoma)
Summary of the method: as §1

[19] = system: SW620 (Colorectal Carcinoma)
Summary of the method: as §1

[20] = system: huH-1 (Hepatocellular Carcinoma)
Summary of the method: as §1

Structure (SMILES)	Bliss excess [1]	Bliss excess [2]	Bliss excess [3]	Bliss excess [4]	Bliss excess [5]	Bliss excess [6]	Bliss excess [7]	Bliss excess [8]	Bliss excess [9]	Bliss excess [10]	Bliss excess [11]	Bliss excess [12]	Bliss excess [13]	Bliss excess [14]	Bliss excess [15]	Bliss excess [16]	Bliss excess [17]	Bliss excess [18]	Bliss excess [19]	Bliss excess [20]
CC(=O)c1c(C)c2cnc(Nc3ccc(N4CCNCC4)cn3)nc2n(C2CCCC2)c1=O [Palbociclib] + CC1(C)CCC(CN2CCN(c3ccc(C(=O)NS(=O)(=O)c4ccc(NCC5CCOCC5)c([N+](=O)[O-])c4)c(Oc4cnc5[nH]ccc5c4)c3)CC2)=C(c2ccc(Cl)cc2)C1 [Venetoclax] (first compound max 10 µM, 7x7, partner max 1 µM)	-0.0571	-0.0158	-0.0272	0.0325	-0.044	-0.0106	0.0564	0.0353	0.0107	-0.0448	-0.0345	-0.103	0.0004	0.005	-0.0237	0.0345	-0.0167	-0.0062	-0.0248	-0.0529
Cn1cnc2c(F)c(Nc3ccc(Br)cc3Cl)c(C(=O)NOCCO)cc21 [Selumetinib] + C=CCn1c(=O)c2cnc(Nc3ccc(N4CCN(C)CC4)cc3)nc2n1-c1cccc(C(C)(C)O)n1 [AZD1775] (first compound max 10 µM, partner max 1 µM)	0.0454	-0.0944	-0.0037	-0.0174	-0.071	-0.0607	-0.0214	-0.0074	-0.0422	-0.0606	-0.0002	-0.0591	-0.0612	-0.0613	0.0069	-0.0992	-0.0357	-0.0059	-0.0198	-0.116
COc1nnc2ccc(N3CCC(c4ccc(OCCN5CCN(C)C(=O)[C@H]5C)cc4)CC3)nn12 [AZD5153] + C[C@@H]1COCCN1C2=NC(=NC(=C2)C3(CC3)[S@](=N)(=O)C)C4=C5C=CNC5=NC=C4 [AZD6738] (first compound max 1 µM, 7x7, partner max 10 µM)	-0.0019	0.0196	-0.0554	0.037	-0.0996	-0.0629	0.0667	0.029	0.0392	0.0465	-0.0104	-0.0149	0.02	-0.0179	0.0192	-0.0312	0.0085	0.0911	0.0276	0.031
NC1(C(=O)N[C@@H](CCO)c2ccc(Cl)cc2)CCN(c2ncnc3[nH]ccc23)CC1 [Capivasertib] + C[C@@H]1COCCN1C2=NC(=NC(=C2)C3(CC3)[S@](=N)(=O)C)C4=C5C=CNC5=NC=C4 [AZD6738] (first compound max 10 µM, 7x7, partner max 10 µM)	-0.0527	-0.0448	0.0044	-0.0279	-0.0714	-0.0353	0.0116	-0.0719	-0.0531	-0.0321	-0.0473	-0.0823	-0.0292	-0.0617	-0.0011	-0.0317	-0.0402	-0.0225	-0.0475	-0.0533
NC1(C(=O)N[C@@H](CCO)c2ccc(Cl)cc2)CCN(c2ncnc3[nH]ccc23)CC1 [Capivasertib] + CC(=O)c1c(C)c2cnc(Nc3ccc(N4CCNCC4)cn3)nc2n(C2CCCC2)c1=O [Palbociclib] (first compound max 10 µM, 7x7, partner max 10 µM)	0.0306	-0.0257	-0.0306	0.0477	-0.0213	-0.0065	0.0029	-0.0569	-0.0186	-0.0115	-0.0267	-0.076	0.0189	-0.0216	-0.0304	-0.0018	-0.0239	-0.0509	-0.019	-0.0462
Cc1c2c(nn1C)CSCc1cc(n(C)n1)CSc1cc(c3ccccc3c1)OCCCc1c(C(=O)O)n(C)c3c-2c(Cl)ccc13 [AZD5991] + C[C@@H](Nc1cc(F)cc(F)c1)c1cc(C(=O)N(C)C)cc2c(=O)cc(N3CCOCC3)oc12 [AZD8186] (first compound max 1 µM, 7x7, partner max 3 µM)	-0.0029	-0.0256	-0.0325	0.0267	0.0282	0.0238	-0.0571	-0.0351	-0.0305	-0.0492	-0.0139	0.0039	-0.0012	-0.0361	-0.0189	-0.0335	0.0153	-0.008	-0.0298	-0.0024
CC(=O)Nc1cccc(-n2c(=O)n(C3CC3)c(=O)c3c(Nc4ccc(I)cc4F)n(C)c(=O)c(C)c32)c1 [Trametinib] + Cc1nc(-c2cn3c(n2)-c2ccc(-c4cnn(C(C)(C)C(N)=O)c4)cc2OCC3)n(C(C)C)n1 [Taselisib] (first compound max 1 µM, 7x7, partner max 10 µM)	0.0551	0.0182	0.219	0.0285	0.0658	0.041	0.0772	0.148	-0.0116	0.11	0.0567	0.0088	0.0652	0.0724	0.102	0.325	0.0416	0.204	0.0527	0.195
CC(=O)c1c(C)c2cnc(Nc3ccc(N4CCNCC4)cn3)nc2n(C2CCCC2)c1=O [Palbociclib] + Cn1cnc2c(F)c(Nc3ccc(Br)cc3Cl)c(C(=O)NOCCO)cc21 [Selumetinib] (first compound max 10 µM, 7x7, partner max 10 µM)	0.0328	0.039	0.0202	-0.0207	-0.018	0.024	-0.0095	-0.0369	0.0782	-0.0436	0.0157	-0.0391	0.0303	-0.0822	0.0506	-0.0843	-0.0359	-0.0055	0.0191	-0.0455
NC1(C(=O)N[C@@H](CCO)c2ccc(Cl)cc2)CCN(c2ncnc3[nH]ccc23)CC1 [Capivasertib] + COc1nnc2ccc(N3CCC(c4ccc(OCCN5CCN(C)C(=O)[C@H]5C)cc4)CC3)nn12 [AZD5153] (first compound max 10 µM, 7x7, partner max 1 µM)	0.0032	0.055	0.0506	-0.0195	-0.0966	-0.0025	0.0283	0.0049	-0.0408	0.0698	-0.0555	0.0532	0.0357	0.036	-0.006	-0.0181	0.0153	0.0529	0.0026	0.0064
CC1(C)CCC(CN2CCN(c3ccc(C(=O)NS(=O)(=O)c4ccc(NCC5CCOCC5)c([N+](=O)[O-])c4)c(Oc4cnc5[nH]ccc5c4)c3)CC2)=C(c2ccc(Cl)cc2)C1 [Venetoclax] + C[C@@H](Nc1cc(F)cc(F)c1)c1cc(C(=O)N(C)C)cc2c(=O)cc(N3CCOCC3)oc12 [AZD8186] (first compound max 1 µM, 7x7, partner max 3 µM)	-0.0172	0.049	-0.0244	-0.0141	0.0231	0.0111	-0.0278	-0.0154	-0.0193	-0.0411	-0.0092	-0.0171	0.0037	0.0129	-0.0304	-0.047	0.0104	-0.0427	-0.0505	-0.0265
CC1(C)CCC(CN2CCN(c3ccc(C(=O)NS(=O)(=O)c4ccc(NCC5CCOCC5)c([N+](=O)[O-])c4)c(Oc4cnc5[nH]ccc5c4)c3)CC2)=C(c2ccc(Cl)cc2)C1 [Venetoclax] + C[C@@H]1COCCN1C2=NC(=NC(=C2)C3(CC3)[S@](=N)(=O)C)C4=C5C=CNC5=NC=C4 [AZD6738] (first compound max 1 µM, 7x7, partner max 10 µM)	-0.0368	-0.0067	-0.0075	0.119	-0.035	-0.0233	-0.0607	-0.112	-0.0511	-0.0643	-0.0167	0.0633	-0.0216	-0.0361	-0.0483	-0.0015	-0.0418	-0.0038	-0.0365	-0.045
NC1(C(=O)N[C@@H](CCO)c2ccc(Cl)cc2)CCN(c2ncnc3[nH]ccc23)CC1 [Capivasertib] + Cn1cnc2c(F)c(Nc3ccc(Br)cc3Cl)c(C(=O)NOCCO)cc21 [Selumetinib] (first compound max 10 µM, 7x7, partner max 10 µM)	-0.0044	0.0062	-0.0147	0.0155	-0.0049	0.128	0.0097	-0.0354	-0.0042	0.0449	0.0258	-0.0062	0.0358	0.017	-0.0041	0.119	-0.0318	-0.0358	0.0186	-0.0199
Cc1c2c(nn1C)CSCc1cc(n(C)n1)CSc1cc(c3ccccc3c1)OCCCc1c(C(=O)O)n(C)c3c-2c(Cl)ccc13 [AZD5991] + C1CN(CCC1(C(=O)N[C@@H](CCO)C2=CC=C(C=C2)Cl)N)C3=NC=NC4=C3C=CN4 [Capivasertib] (first compound max 1 µM, 7x7, partner max 3 µM)	0.0404	-0.0369	-0.0114	0.0168	-0.0375	0.0341	-0.0456	-0.0219	-0.0129	-0.0056	-0.0204	0.0719	0.0157	-0.0225	-0.0023	0.0001	0.019	-0.0428	-0.0325	-0.0149
CC1(C)CCC(CN2CCN(c3ccc(C(=O)NS(=O)(=O)c4ccc(NCC5CCOCC5)c([N+](=O)[O-])c4)c(Oc4cnc5[nH]ccc5c4)c3)CC2)=C(c2ccc(Cl)cc2)C1 [Venetoclax] + CN(C)CCCOc1ccc(-c2ccc3ncc4c(c3c2)n(C2CCOCC2)c(=O)n4C)cn1 [AZD0156] (first compound max 1 µM, 7x7, partner max 1 µM)	-0.0277	-0.0276	-0.0638	0.0619	0.0106	-0.0501	-0.0659	-0.0404	-0.0443	-0.0819	-0.0319	0.021	0.013	-0.0004	-0.0733	-0.0272	-0.0468	-0.018	-0.0142	-0.032
